Experimental data reported in US20060084599A1, “Compositions, methods and kits relating to notch signaling” (Maine Medical Center, priority 2003, published 2006).

Legend:
[1] = test system: FGF gene family transcripts; experiment: RT-PCR of FGF gene family expression; type: cell-based, murine; conditions: stable NIH 3T3 cell transfectants expressing the ligand
Experimental: Total RNA from vector control, sJ1, caN1 and dnN1 stable transfectants was isolated using Tri Reagent™ (Sigma) according to the manufacturer's protocol. cDNA was obtained from 5 μg total RNA with SuperScript™ (Invitrogen) reverse transcriptase using an oligo dT primer (Invitrogen). The following specific primers were purchased from IDT and used for RT-PCR analysis. Sense primers are indicated by (s); Antisense primers are indicated by (as): […]
PCR amplification was performed for 45 cycles as follows: 40 seconds at 94° C., 40 seconds at 50° C. (for FGF2, FGF3, FGF4 and FGFR3) or at 55° C. (for FGF6, FGF7, FGF8, FGF9, FGF10, FGFR1 and FGFR2), 1 minute at 72° C. For FGF5, RT-PCR analysis was performed as described (Ozawa et al., 1998, J. Biol. Chem. 273: 29262-29271) and all amplified DNA was visualized with ethidium bromide on 1.5% agarose gels.

CBF1-responsive promoter = experiment: Dual luciferase assay of CSL-dependent transcription (Example 3); type: cell-based, mouse; conditions: NIH 3T3 cells and N1IC NIH 3T3 cells expressing the ligand
Experimental: Dual Luciferase Assay. CSL-dependent transcription was quantitated as previously described (Small et al., 2001, J. Biol. Chem. 276:32022-32030; Small et al., 2003, J. Biol. Chem. 278:16405-16413). Briefly, approximately 5×10^4 cells representing insert-less vector control, sDl1, sJ1, dominant-negative Notch1 (dnN1), dominant-negative Notch2 (dnN2) (Small et al., 2001, J. Biol. Chem. 276:32022-32030), sDl1/dnSrc and sJ1/dnSrc stable NIH 3T3 cell transfectants were plated on 12-well plastic plates (Falcon) coated with fibronectin (10 μg/cm^2). The cells were transiently transfected at 60% confluence with 500 ng of the CBF1-responsive Luciferase construct (Small et al., 2001, J. Biol. Chem. 276:32022-32030) and 100 ng of a Renilla SV40 construct (Promega) which was utilized as an internal control for transfection efficiency. Gene Juice (Novagen) was used as a transfection reagent. Some of the samples also contained 200 ng of a DNA construct encoding the truncated intracellular constitutively active form of Notch1 (N1IC) (Small et al., 2001, J. Biol. Chem. 276:32022-32030). […] Individual assays were performed in triplicate and the Luciferase/Renilla activity was measured using Dual-Luciferase Reporter Assay System (Promega) 48 hrs following the transient transfection.

cortactin = experiment: Phosphotyrosine cortactin immunoblot; type: cell-based, mouse; conditions: stable NIH 3T3 cell transfectants expressing the ligand
Experimental: Immunoblot Analysis. Cell lysates from insert-less vector sDl1 and sJ1 NIH 3T3 cell transfectants were prepared in 20 mM Tris HCl, pH 7.5, containing 300 mM sucrose, 60 mM—KCl, 15 mM NaCl, 0.5 mM EDTA, 0.5% (v/v) Triton X-100, 1 mM phenylmethylsulfonyl fluoride, 10 μg/ml leupeptin, 2 μg/ml aprotinin, 0.1% (w/v) deoxycholic acid and 1 mM sodium orthovanadate. Samples of equal protein content were subjected to SDS-PAGE and immunoblot analysis was performed as previously described (Small et al., 2001, J. Biol. Chem. 276:32022-32030) using either a rabbit anti-Src [pY418] phosphospecific antibody (Biosource International), a rabbit anti-total Src antibody (Santa Cruz Biotechnology), a rabbit polyclonal anti-cortactin antibody (a gift from Dr. Xi Zhan, American Red Cross), or an anti-phosphotyrosine antibody (Upstate). Immunoprecipitation of cortactin was performed as previously described (Zhan et al., 1993, J. Biol. Chem. 268:24427-24431).

[2] = test system: CSL1-dependent transcription; experiment: Dual luciferase reporter assay of CSL1-dependent transcription (Example 2); type: cell-based, murine; conditions: for CSL1-dependent transcription, level relative to control: thrombin on full-length Jagged1 NIH 3T3 transfectants, sJ1 expression, 10 ng/ml exogenous FGF1
Experimental: Insert-less vector control and sJ1 NIH 3T3 cell transfectants (approximately 3×10^4) were plated on fibronectin-coated (10 μg/cm^2) cell culture dishes and the cells were transiently transfected at approximately 50% confluency with 500 ng of a luciferase construct containing four tandem copies of the CBF1 response element (Small et al., 2001, J. Biol. Chem. 276:32022-32030).
Cotransfection with 100 ng of the TK Renilla (Promega) construct was used as an internal control for transfection efficiency using Fugene 6 (Roche), according to the manufacturer's instructions. Cells were treated with or without 10, […] hours after transfection, harvested 48 hours after the transfection and luciferase/renilla activity measured using the Dual Luciferase Reporter Assay System (Promega). Each experiment was performed in triplicate.

NCSC populations = experiment: Dosage sensitivity of secondary NCSC to BMP2 and sDl1; type: cell-based, murine; conditions: founders expanded 18 days; BMP2 and sDl1 dose response
Experimental: It is well established that quantitative changes in the dosage sensitivity of NCSC populations occur in vitro and in vivo during NCSC self-renewal (Kubu et al., 2002, Dev. Biol. 244:199-214; White et al., 1999, Development 126:4351-4363; White et al., 2001, Neuron 29:57-71). In order to resolve whether it was possible to clonally expand stem cell populations without the loss of qualitative or quantitative differentiation potential, it was evaluated whether NCSC population expansion in either a thrombin or a sJ 1 environment was able to maintain the quantitative dosage sensitivity of the NCSC populations to instructive differentiation factors. NCSC clones were expanded with either thrombin, TRAP, or sJ1 for 18 days, the clones dissociated to a clonal density every 6 days to minimize cell-cell interactions, and the p75^+/P0^− cells identified. The dosage sensitivity of secondary NCSC populations to both BMP2 and sDl1 was evaluated using the clonogenic differentiation assay to quantitate the production of neuron-only clones (BMP2) and glial-only clones (sDl1) after day 18.

[3] = test system: NIH 3T3 cell transfectants; experiment: Anchorage-dependent cell growth assay; type: cell-based, mouse; conditions: stable NIH 3T3 cell transfectants, 10% BCS
Experimental: Anchorage-Dependent and -Independent Cell Growth Assays. Approximately 3×10^4 cells were plated on fibronectin (10 μg/cm^2)-coated in 12-well cell culture dishes (Falcon) in DMEM containing 10% BCS (v/v) (Hyclone). Three wells of the individual NIH 3T3 cell transfectants were harvested every third day and cell number was quantitated using a hemocytometer. Anchorage-independent cell growth was evaluated by plating in duplicate approximately 1.7×10^3 cells in DMEM containing 0.5% (w/v) agar (Sigma) 10% (v/v) BCS into 5 cm plastic dishes (Falcon) as previously described (Small et al., 2003, J. Biol. Chem. 278:16405-16413).

Molecule: sJ1: Soluble Jagged1, amino acid residues about 1 to 1067 (SEQ ID NO:3) of full-length human Jagged1
- FGF gene family mRNA expression in transfectants [1]: expression of mRNAs encoding FGF1, FGF3, FGF4, and FGF5
- transactivation of the CBF1-responsive promoter (CBF1-responsive promoter): inhibited the transactivation of the CBF1-responsive promoter
- level of tyrosine-phosphorylated cortactin (cortactin): increased level
- CSL1-dependent transcription, level relative to control [2]: approximately 25 % of the control level
- shift in sensitivity of secondary stem cells to instructive differentiation signals (NCSC populations): this shift in sensitivity to instructive differentiation signals was not observed
- growth kinetics at high cell density [3]: impaired contact inhibition of growth

Molecule: thrombin
- effect on Notch-dependent CSL1 activity ([2]; full-length Jagged1 NIH 3T3 cell transfectants): able to reduce the level of Notch-dependent CSL1 activity in a dose-dependent manner
- CSL1-dependent transcription, level relative to control [2]: approximately 75 % of the control level
- shift in sensitivity of secondary stem cells to instructive differentiation signals (NCSC populations): this shift in sensitivity to instructive differentiation signals was not observed

B1: sDl1: soluble non-transmembrane form (extracellular domain) of the Notch ligand Delta1 (protein)
chain: QVWSSGVFELKLQEFVNKKGLLGNRNCCRGGAGPPPCACRTFFRVCLKHYQASVSPEPPCTYGSAVTPVLGVDSFSLPDGGGADSAFSNPIRFPFGFTWPGTFSLIIEALHTDSPDDLATENPERLISRLATQRHLTVGEEWSQDLHSSGRTDLKYSYRFVCDEHYYGEGCSVFCRPRDDAFGHFTCGERGEKVCNPGWKGPYCTEPICLPGCDEQHGFCDKPGECKCRVGWQGRYCDECIRYPGCLHGTCQQPWQCNCQEGWGGLFCNQDLNYCTHHKPCKNGATCTNTGQGSYTCSCRPGYTGATCELGIDECDPSPCKNGGSCTDLENSYSCTCPPGFYGKICELSAMTCADGPCFNGGRCSDSPDGGYSCRCPVGYSGFNCEKKIDYCSSSPCSNGAKCVDLGDAYLCRCQAGFSGRHCDDNVDDCASSPCANGGTCRDGVNDFSCTCPPGYTGRNCSAPVSRCEHAPCHNGATCHERGHRYVCECARGYGGPNCQFLLPELPPGPAVVDLTEKLEGQGGPFPW
modifications: left off: small tags and cut ends
notes: soluble non-transmembrane form (extracellular domain) of the Notch ligand Delta1
- FGF gene family mRNA expression in transfectants [1]: express the FGF3, FGF4 and FGF9 transcripts
- transactivation of the CBF1-responsive promoter (CBF1-responsive promoter): inhibited the transactivation of the CBF1-responsive promoter
- level of tyrosine-phosphorylated cortactin (cortactin): decrease
- growth kinetics at high cell density [3]: impaired contact inhibition of growth
